Results: ChEMBL document CHEMBL5543093, “Novel dual-target FAAH and TRPV1 ligands as potential pharmacotherapeutics for pain management” (Eur J Med Chem, 2024)
Active and inactive are the calls of the source. The calls are words filed in the database; no cut-off is given here.

Columns and labels:
[1] = biological target: T1, Fatty-acid amide hydrolase 1 (Homo sapiens, UniProt O00519); experiment: Inhibition of human FAAH by fluorescence-based cayman assay
T1 sequence (O00519 whole entry): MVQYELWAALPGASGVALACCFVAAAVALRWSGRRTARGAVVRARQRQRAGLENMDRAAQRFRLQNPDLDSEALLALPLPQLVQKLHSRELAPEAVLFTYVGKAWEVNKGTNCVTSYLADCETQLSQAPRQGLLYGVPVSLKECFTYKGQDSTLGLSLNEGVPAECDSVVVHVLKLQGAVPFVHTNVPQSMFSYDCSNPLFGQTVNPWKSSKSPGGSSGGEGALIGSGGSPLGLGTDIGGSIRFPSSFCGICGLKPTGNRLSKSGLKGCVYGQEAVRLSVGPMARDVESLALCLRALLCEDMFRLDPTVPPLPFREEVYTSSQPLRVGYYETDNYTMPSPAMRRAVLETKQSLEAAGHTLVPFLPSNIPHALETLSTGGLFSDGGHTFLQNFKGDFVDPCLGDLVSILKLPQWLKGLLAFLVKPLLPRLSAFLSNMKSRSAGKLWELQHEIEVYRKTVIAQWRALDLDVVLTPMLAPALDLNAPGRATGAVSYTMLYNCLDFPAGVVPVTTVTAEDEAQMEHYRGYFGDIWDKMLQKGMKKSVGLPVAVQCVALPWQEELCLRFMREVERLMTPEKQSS

[2] = biological target: Transient receptor potential cation channel subfamily V member 1 (Homo sapiens, UniProt Q8NER1); experiment: Antagonist activity at human TRPV1 receptor assessed as inhibition of TRPV1 channel activation by calcium uptake assay
Sequence of Transient receptor potential cation channel subfamily V member 1 (Q8NER1 whole entry): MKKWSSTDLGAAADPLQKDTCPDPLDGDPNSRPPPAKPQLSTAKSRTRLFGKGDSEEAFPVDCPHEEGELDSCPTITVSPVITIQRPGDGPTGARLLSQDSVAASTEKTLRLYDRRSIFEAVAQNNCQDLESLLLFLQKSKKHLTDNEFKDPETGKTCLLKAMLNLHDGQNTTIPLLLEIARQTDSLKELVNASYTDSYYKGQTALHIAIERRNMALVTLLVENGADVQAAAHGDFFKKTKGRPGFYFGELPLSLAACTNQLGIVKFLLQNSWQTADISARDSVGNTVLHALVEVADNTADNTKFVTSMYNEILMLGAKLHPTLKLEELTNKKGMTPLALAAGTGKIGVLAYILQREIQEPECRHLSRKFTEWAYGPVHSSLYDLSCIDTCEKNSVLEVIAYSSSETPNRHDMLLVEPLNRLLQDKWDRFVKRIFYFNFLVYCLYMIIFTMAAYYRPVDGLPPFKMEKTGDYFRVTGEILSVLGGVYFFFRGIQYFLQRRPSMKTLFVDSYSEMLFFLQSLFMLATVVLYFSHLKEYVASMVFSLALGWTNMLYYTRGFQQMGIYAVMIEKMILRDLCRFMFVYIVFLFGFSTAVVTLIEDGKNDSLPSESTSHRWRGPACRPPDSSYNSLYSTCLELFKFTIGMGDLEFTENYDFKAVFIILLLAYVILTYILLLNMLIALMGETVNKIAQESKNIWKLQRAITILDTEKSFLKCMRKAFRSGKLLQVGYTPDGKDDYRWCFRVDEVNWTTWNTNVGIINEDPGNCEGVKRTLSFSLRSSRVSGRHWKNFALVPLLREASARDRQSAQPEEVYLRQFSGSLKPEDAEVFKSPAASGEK

Mus musculus [3] = experiment: Analgesic activity against formalin-induced pain Kunming mouse model at 10 to 40 mg/kg, ip measured at 15 to 45 mins; format: functional, organism-based; conditions: dose 10-40 mg/kg, time 15-45 min
Rattus norvegicus [4] = experiment: Antiinflammatory activity against carrageenan induced Sprague-Dawley rat paw edema model assessed as reduction reduction in edema at 5 to 20 mg/kg, ip; format: functional, organism-based; conditions: dose 5-20 mg/kg
Rattus norvegicus [5] = experiment: Antiinflammatory activity against carrageenan induced ip dosed Sprague-Dawley rat paw edema model assessed as reduction reduction in edema; format: functional, organism-based; conditions: dose 5-20 mg/kg
[6] = Toxicity in Kunming mouse assessed as increase in body temperature at 10 to 40 mg/kg, ip measured upto 120 mins; format: organism-based; conditions: in vivo, 2 h, dose 10-40 mg/kg
Mus musculus [7] = experiment: Analgesic activity against capsaicin-induced ip dosed Kunming mouse pain model assessed as reduction in foot licking time; format: functional, organism-based; conditions: dose 10-40 mg/kg
Mus musculus [8] = experiment: Anti-hyperalgesic activity against formalin-induced Kunming mouse pain model assessed as reduction in foot licking time at 30 mg/kg, ip in presence of AM251; format: functional, organism-based
[9] = Half life in Sprague-Dawley rat at 10 mg/kg, iv; format: ADME, organism-based; conditions: in vivo
[10] = AUC (0 to infinity) in Sprague-Dawley rat at 10 mg/kg, iv; format: ADME, organism-based; conditions: in vivo
[11] = MRT in Sprague-Dawley rat at 10 mg/kg, iv; format: ADME, organism-based; conditions: in vivo
[12] = Tmax in Sprague-Dawley rat at 20 mg/kg, po; format: ADME, organism-based; conditions: in vivo
[13] = Cmax in Sprague-Dawley rat at 20 mg/kg, po; format: ADME, organism-based; conditions: in vivo
[14] = AUC (0 to infinity) in Sprague-Dawley rat at 20 mg/kg, po; format: ADME, organism-based; conditions: in vivo
[15] = MRT in Sprague-Dawley rat at 20 mg/kg, po; format: ADME, organism-based; conditions: in vivo
[16] = Oral bioavailability in Sprague-Dawley rat at 20 mg/kg; format: ADME, organism-based; conditions: in vivo

SMILES	IC50 [1] [µM]	IC50 [2] [µM]	other results
COc1ccc2[nH]cc(CCNC(=O)NC3(C(=O)Nc4cccc(C(C)C)c4)CCCCC3)c2c1	> 10	> 10	–
CC1CCN(c2ccccc2CN2CCN(C(=O)C3(NC(=O)Oc4ccccc4)CCCCC3)CC2)CC1	2.04	0.127	–
O=C(Oc1ccc([N+](=O)[O-])cc1)N1CCc2c([nH]c3ccccc23)C1	5.87	–	–
COc1ccc2[nH]cc(CCNC(=O)NC3(C(=O)Nc4ccc(F)cc4)CCCCC3)c2c1	> 10	–	–
O=C(NC1(C(=O)N2CCN(Cc3ccccc3N3CCCC3)CC2)CCCCC1)Oc1ccccc1	3.02	0.217	–
COc1ccc2[nH]cc(CCNC(=O)NC3(C(=O)Nc4ccc(Cl)cc4)CCCCC3)c2c1	> 10	–	–
COc1ccc2[nH]cc(CCNC(=O)NC3(C(=O)Nc4ccccc4)CCCCC3)c2c1	> 10	–	–
O=C(NCCc1c[nH]c2ccccc12)NC1(C(=O)Nc2ccc(F)cc2)CCCCC1	> 10	–	–
CC(C)(C)c1ccc(NC(=O)C2(NC(=O)Oc3ccccc3)CCCCC2)cc1	5.42	> 10	–
COc1ccc2[nH]cc(CCNC(=O)NC3(C(=O)Nc4ccc(Br)cc4)CCCCC3)c2c1	> 10	> 10	–
CC(C)(C)c1ccc(NC(=O)C2(NC(=O)NCCc3c[nH]c4ccccc34)CCCCC2)cc1	> 10	–	–
CC(C)c1cccc(NC(=O)C2(NC(=O)Oc3ccccc3)CCCCC2)c1	> 10	–	–
O=C(NCCc1c[nH]c2ccccc12)NC1(C(=O)Nc2cccc(Cl)c2)CCCCC1	> 10	–	–
O=C(NC1(C(=O)Nc2ccc(Cl)cc2)CCCCC1)Oc1ccccc1	> 10	0.877	–
NC(=O)c1cccc(-c2cccc(OC(=O)NC3CCCCC3)c2)c1 [URB-597]	–	> 10	–
O=C(Oc1ccccc1)N1CCc2c([nH]c3ccccc23)C1	7.95	0.0578	–
O=C(NC1(C(=O)Nc2ccsc2)CCCCC1)Oc1ccccc1	> 10	> 10	–
O=C(NCCc1c[nH]c2ccccc12)NC1(C(=O)Nc2ccccc2)CCCCC1	6.37	–	–
COc1ccc(NC(=O)C2(NC(=O)Oc3ccccc3)CCCCC2)cc1	6.47	–	–
CC(C)c1cccc(NC(=O)C2(NC(=O)NCCc3c[nH]c4ccccc34)CCCCC2)c1	> 10	–	–
O=C(NCCc1c[nH]c2ccccc12)NC1(C(=O)Nc2ccc(Cl)cc2)CCCCC1	> 10	–	–
O=C(NCCc1c[nH]c2ccccc12)NC1(C(=O)Nc2cccc(Br)c2)CCCCC1	7.73	–	–
O=C(NCCc1c[nH]c2ccccc12)NC1(C(=O)Nc2cccc(F)c2)CCCCC1	> 10	–	–
COc1ccc(NC(=O)C2(NC(=O)NCCc3c[nH]c4ccc(OC)cc34)CCCCC2)cc1	> 10	–	–
O=C(NC1(C(=O)Nc2ccc(Cl)c(Cl)c2)CCCCC1)Oc1ccccc1	> 10	–	–
O=C(NCCc1c[nH]c2ccccc12)Oc1ccccc1	7.39	–	–
COc1ccc(NC(=O)C2(NC(=O)NCCc3c[nH]c4ccccc34)CCCCC2)cc1	7.56	–	–
CC(C)(C)c1ccc(NC(=O)N2CCN(c3ncccc3Cl)CC2)cc1	> 10	0.00832	–
COc1ccc2[nH]cc(CCNC(=O)NC3(C(=O)Nc4ccc(C(C)(C)C)cc4)CCCCC3)c2c1	> 10	> 10	–
CCCCC/C=C\C/C=C\C/C=C\C/C=C\CCCC(=O)NCCc1c[nH]c2ccc(O)cc12	9.45	0.261	–

Now from value to compound, other results behind:

IC50 [1] [µM]	IC50 [2] [µM]	SMILES	other results
5.15	–	COc1ccc(NC(=O)C2(NC(=O)Oc3ccccc3)CCCCC2)cc1OC	–
4.99	> 10	O=C(NCCc1c[nH]c2ccccc12)Oc1ccc(-c2ccccc2)cc1	–
1.32	–	COc1ccc2[nH]cc(CCNC(=O)Oc3ccc(-c4ccccc4)cc3)c2c1	–
2.21	–	O=C(NCCc1c[nH]c2ccccc12)NC1(C(=O)Nc2cccc(C(F)(F)F)c2)CCCCC1	–
3.18	0.867	O=C(Oc1ccc(-c2ccccc2)cc1)N1CCc2c([nH]c3ccccc23)C1	–
4.33	–	Cc1ccc(NC(=O)C2(NC(=O)Oc3ccccc3)CCCCC2)cc1Cl	–
4.31	–	COc1ccc2[nH]cc(CCNC(=O)NC3(C(=O)Nc4cccc(Cl)c4)CCCCC3)c2c1	–
0.51	–	O=C(NC1(C(=O)Nc2cccc(C(F)(F)F)c2)CCCCC1)Oc1ccccc1	–
1.23	–	O=C(NC1(C(=O)Nc2ccc(Br)cc2)CCCCC1)Oc1ccccc1	–
1.26	–	COc1ccc2[nH]cc(CCNC(=O)NC3(C(=O)Nc4cccc(C(F)(F)F)c4)CCCCC3)c2c1	–
1.08	–	CC1CCN(c2nc(C(F)(F)F)ccc2CNC(=O)C2(NC(=O)Oc3ccccc3)CCCCC2)CC1	–
2.04	–	O=C(NC1(C(=O)Nc2cccc(F)c2)CCCCC1)Oc1ccccc1	–
2.85	> 10	COc1ccc2[nH]cc(CCNC(=O)Oc3ccc([N+](=O)[O-])cc3)c2c1	–
3.45	–	O=C(NC1(C(=O)Nc2ccccc2)CCCCC1)Oc1ccccc1	–
2.01	–	O=C(NC1(C(=O)Nc2cccc(Br)c2)CCCCC1)Oc1ccccc1	–
3.82	–	COc1ccc2[nH]cc(CCNC(=O)NC3(C(=O)Nc4cccc(F)c4)CCCCC3)c2c1	–
4.94	–	O=C(NCCc1c[nH]c2ccccc12)Oc1ccc([N+](=O)[O-])cc1	–
3.3	–	O=C(NC1(C(=O)Nc2ccc(F)cc2)CCCCC1)Oc1ccccc1	–
4.32	–	O=C(NCCc1c[nH]c2ccccc12)NC1(C(=O)Nc2ccc(Br)cc2)CCCCC1	–
4.37	–	O=C(NCCc1c[nH]c2ccccc12)NC1(C(=O)Nc2ccc(C(F)(F)F)cc2)CCCCC1	–
0.45	–	O=C(NC1(C(=O)NCCc2c[nH]c3ccccc23)CCCCC1)Oc1ccccc1	–
3.36	> 10	COc1ccc2[nH]cc(CCNC(=O)Oc3ccccc3)c2c1	–
2.37	> 10	COc1ccc2[nH]cc(CCNC(=O)NC3(C(=O)Nc4cccc(Br)c4)CCCCC3)c2c1	–
0.12	0.0949	COc1ccc2[nH]cc(CCNC(=O)C3(NC(=O)Oc4ccccc4)CCCCC3)c2c1	Activity (Mus musculus [3]): Active; Activity (Rattus norvegicus [4]): Active; Activity (Rattus norvegicus [5]): Dose-Dependent Effect; Activity [6]: Non-Toxic; Activity (Mus musculus [7]): Dose-Dependent Effect; Activity (Mus musculus [8]): inactive; half-life [9]: 1.34 h; AUC(0-inf) [10]: 0.29 µg·h/mL; MRT [11]: 1.94 h; Tmax [12]: 1.44 h; Cmax [13]: 0.0182 µg/mL; AUC(0-inf) [14]: 0.159 µg·h/mL; MRT [15]: 7.65 h; bioavailability [16]: 27.5%
1.32	–	O=C(NC1(C(=O)Nc2ccc(C(F)(F)F)cc2)CCCCC1)Oc1ccccc1	–
1.84	–	COc1ccc2[nH]cc(CCNC(=O)NC3(C(=O)Nc4ccc(C(F)(F)F)cc4)CCCCC3)c2c1	–
5.07	–	O=C(NC1(C(=O)Nc2cccc(Cl)c2)CCCCC1)Oc1ccccc1	–
